In patent US20250353820A1, “ANTIVIRAL PYRAZOLOPYRIDINONE COMPOUNDS” (Novartis AG, priority 2019, published 2025) one finds IC50 and EC50 data, which are given here for 15 molecules.

Like-named read-outs stand apart in the source and are kept apart here.

Experiment [1] concerns the target human CMV DNA polymerase UL54 (Human cytomegalovirus (strain AD169) (HHV-5) (Human herpesvirus 5), UniProt P08546). Kind of experiment: biochemical. Conditions: 100 pM CMV polymerase, 60 minutes at room temperature; read-out: CMV-polymerase Biochemical IC50.
Experiment [2] concerns Luciferase-encoding HCMV (AD169 strain). As to the kind of experiment: microbe, parasite or virus in culture. It is filed as cell-based.
Experiment [3] has as its target human HSV DNA polymerase UL30 (Human herpesvirus 1 (strain 17) (HHV-1) (Human herpes simplex virus 1), UniProt P04293). As to the kind of experiment: biochemical. Conditions: 625 pM HSV polymerase, 20 minutes at room temperature; read-out: HSV-polymerase Biochemical IC50.
Experiment [4] concerns VZV Ellen strain. As to the kind of experiment: VZV qPCR assay. Conditions: Human alphaherpesvirus 3, MRC5, 48 h, read-out: Cellular activity against VZV (EC50).
In experiment [5] the test system is KOS strain of HSV-1 virus. Kind of experiment: HSV-1 qPCR assay. Conditions: read-out: Cellular activity against HSV-1 (EC50). On the technique in general: In qPCR the cycle at which signal appears reflects the starting amount.
Experiment [6] relates to EBV (SNU-719 gastric carcinoma cell line latently infected). As to the kind of experiment: EBV qPCR assay. Conditions: human gammaherpesvirus 4, 72 h, read-out: Cellular activity against EBV (EC50).
Experiment [7] deals with HCMV-Rluc virus (AD169 pp28-hRluc rUL131). As to the kind of experiment: CMV Luciferase Assay of Compounds 243-262 in ARPE-19 cells. Conditions: Human betaherpesvirus 5, AD169, ARPE-19, 72 h, read-out: CMV-Luc Cellular EC50 in ARPE-19. It is filed as cell-based. As to the method: The assay uses a Luciferase-encoding HCMV. Luciferase is expressed under the control of a late viral gene (pp28) promoter in the AD169 strain, so that expression of the reporter is dependent on viral DNA replication. Compounds that affect any stage from viral entry to DNA replication result in a change in luciferase levels.
Compounds 243-262 were tested in a luminescence assay as follows.
ARPE-19 cells were maintained in growth medium (DMEM/F12 Glutamax+10 fetal bovine serum (FBS)+PenStrep) and, before reaching full confluence, were transferred to a centrifuge tube and spun for 5 minutes at 1000 rpm. The cells were resuspended in assay medium (DMEM/F12 Glutamax+2% FBS+PenStrep) and counted. Cell density was adjusted to one million cells per milliliter and infected with HCMV-Rluc virus (AD169 pp28-hRluc rUL131; MOI 0.6) in a 50 ml conical tube for 2 hours while shaking. After dilution of the infectious suspension ten-fold (to 100,000 cells per milliliter), 8000 cells are directly plated in 384-well plates pre-spotted with the compound to be tested. The cells were incubated for 72 hours at 37 degrees Celsius. Cells were then placed at room temperature and allowed to equilibrate for 20 minutes before addition of the Renilla-Glo (Promega) reagent. After a 10-minute incubation at room temperature, luminescence was measured on a microplate reader.

[8] abbreviates: Human betaherpesvirus 5, AD169, 72 h, read-out: CMV-Luc Cellular EC50, NN-NHDF cells, MOI of 1, 72 hrs.
The mark [9] stands for this setting: read-out: CMV-Luc Cellular EC50, NN-NHDF cells, MOI of 1, 72 hrs.

For `CC(N)COCC(C)(C)S(=O)(=O)C1(CN2CCc3c(C(=O)NCc4ccc(C#N)cc4)nn(C)c3C2=O)CC1` (single isomer, unassigned) [Example 100, (R)- or (S)-6-((1-((1-(2-Aminopropoxy)-2-methylpropan-2-yl)sulfonyl)cyclopropyl)methyl)-N-(4-cyanobenzyl)-1-methyl-7-oxo-4,5,6,7-tetrahydro-1H-pyrazolo[3,4-c]pyridine-3-carboxamide], the half-inhibitory concentration (IC50) – broadly, the concentration that inhibits the measured activity by half – worked out at 4 nM in experiment [1] and 60 nM in experiment [3]. For the same molecule, in experiment [2] (setting [8]), the half-maximal effective concentration (EC50) (commonly the concentration that produces a half-maximal response) amounted to 13 nM.
On to `Cn1nc(C(=O)NCc2ccc(C#N)cc2)c2c1C(=O)N(CC1(S(=O)(=O)C3CCOC3)CC1)CC2` (single isomer, unassigned) [Example 171], for which the figures for the half-maximal inhibitory concentration (IC50) in experiment [1] and in experiment [3] were 3 nM and 78 nM, respectively. Moreover, the EC50 in experiment [2] (setting [9]) turned out to be 104 nM.
Take `Cn1nc(C(=O)NCc2ccc(C#N)cc2)c2c1C(=O)N(CC1(S(=O)(=O)C(C)(CN)CO)CC1)CC2` (single isomer, unassigned) [Example 185]: the IC50 came to 4 nM in experiment [1] and 59 nM in experiment [3]. In addition, the EC50 in experiment [2] (setting [9]) was 275 nM.
Consider `Cn1nc(C(=O)NCc2ccc(C#N)cc2)c2c1C(=O)N(CC1(S(=O)(=O)C3(C(O)CO)CC3)CC1)CC2` (single isomer, unassigned) [Example 195, (R)- or (S)—N-(4-Cyanobenzyl)-6-((1-((1-(1,2-dihydroxyethyl)cyclopropyl)sulfonyl)cyclopropyl)methyl)-1-methyl-7-oxo-4,5,6,7-tetrahydro-1H-pyrazolo[3,4-c]pyridine-3-carboxamide], for which, in experiment [1], the IC50 is 1 nM. Moreover, the EC50 in experiment [2] (setting [9]) came out at 53 nM.
Consider `Cn1nc(C(=O)NCc2ccc(Cl)cc2)c2c1C(=O)N(CC1(S(=O)(=O)C3(C(O)CO)CC3)CC1)CC2` (single isomer, unassigned) [Example 196], for which the IC50 came to 1 nM in experiment [1] and 19 nM in experiment [3]. In experiment [2] (setting [8]), the EC50 stood at 19 nM.
As for `Cn1nc(C(=O)NCc2ccc(Cl)cc2)c2c1C(=O)N(CC1(S(=O)(=O)C3(C(O)CO)CC3)CC1)CC2` (single isomer, unassigned) [Example 197], the IC50 in experiment [1] was 1 nM. Besides, the EC50 in experiment [2] (setting [9]) is 20 nM.
In the case of `Cn1nc(C(=O)NCc2ccc(C#N)cc2)c2c1C(=O)N(CC1(S(=O)(=O)C(C)(C)C(O)CN)CC1)CC2` (single isomer, unassigned) [Example 199], the IC50 in experiment [1] was 1 nM; in experiment [3], 28 nM. In addition, the EC50 was determined as 127 nM in experiment [4]; 30 nM in experiment [5] (Human alphaherpesvirus 1, 24 h); 11 nM in experiment [6].
As for `Cn1nc(C(=O)NCc2ccc(Cl)cc2)c2c1C(=O)N(CC1(S(=O)(=O)C(C)(C)C(O)CN)CC1)CC2` (single isomer, unassigned) [Example 201], the figures for the IC50 in experiment [1] and in experiment [3] were 1 nM and 15 nM, respectively. Further, the 50% effective concentration (EC50) in experiment [5] (NN-NHDF cells, MOI of 0.01, 24 hrs, qPCR) came to 18 nM; in experiment [2] (setting [9]), 6 nM; in experiment [2] (read-out: Cellular activity against CMV (EC50), Table 18, CMV), 6 nM.
`CNCC(O)C(C)(C)S(=O)(=O)C1(CN2CCc3c(C(=O)NCc4ccc(C#N)cc4)nn(C)c3C2=O)CC1` (single isomer, unassigned) [Example 203]: the concentration for half-maximal inhibition (IC50) in experiment [1] was found to be 2 nM; in experiment [3], 38 nM. Also, in experiment [2] (setting [9]), the EC50 turned out to be 19 nM.
Take `CNCC(O)C(C)(C)S(=O)(=O)C1(CN2CCc3c(C(=O)NCc4ccc(Cl)cc4)nn(C)c3C2=O)CC1` (single isomer, unassigned) [Example 205]: the IC50 amounted to 2 nM in experiment [1] and 29 nM in experiment [3]. The half-maximal effective concentration (EC50) in experiment [2] (setting [9]) was found to be 9 nM.
`CN(C)CC(O)C(C)(C)S(=O)(=O)C1(CN2CCc3c(C(=O)NCc4ccc(Cl)cc4)nn(C)c3C2=O)CC1` (single isomer, unassigned) [Example 207]: the IC50 in experiment [1] came out at 23 nM; in experiment [3], 88 nM. Also, the half-maximal effective concentration (EC50) in experiment [2] (setting [9]) stood at 50 nM.
Consider `N#Cc1ccc(CNC(=O)c2n[nH]c3c2CCN(CC2(S(=O)(=O)C4CC4)CC2)C3=O)cc1` [Example 45, N-(4-Cyanobenzyl)-6-((1-(cyclopropylsulfonyl)cyclopropyl)methyl)-7-oxo-4,5,6,7-tetrahydro-1H-pyrazolo[3,4-c]pyridine-3-carboxamide], for which the figures for the 50% inhibitory concentration (IC50) in experiment [1] and in experiment [3] were 6 nM and 169 nM, respectively. Further, the concentration giving a half-maximal response (EC50) in experiment [2] (setting [8]) was determined as 146 nM.
As to `Cn1nc(C(=O)NCc2ccc(C#N)cc2)c2c1C(=O)N(CC1(S(=O)(=O)C(C)(C)COCCO)CC1)CC2` [Example 87, N-(4-Cyanobenzyl)-6-((1-((1-(2-hydroxyethoxy)-2-methylpropan-2-yl)sulfonyl)cyclopropyl)methyl)-1-methyl-7-oxo-4,5,6,7-tetrahydro-1H-pyrazolo[3,4-c]pyridine-3-carboxamide], the IC50 in experiment [1] worked out at 1 nM; in experiment [3], 32 nM. Besides, the EC50 in experiment [2] (setting [8]) was 44 nM.
As to `CC(C)[C@@H](NS(=O)(=O)C1(CN2CCc3c(C(=O)NCc4ccc(Cl)cc4)nn(C)c3C2=O)CC1)C(=O)O` [Example 215, ((1-((3-((4-Chlorobenzyl)carbamoyl)-1-methyl-7-oxo-1,4,5,7-tetrahydro-6H-pyrazolo[3,4-c]pyridin-6-yl)methyl)cyclopropyl)sulfonyl)-D-valine], the half-inhibitory concentration (IC50) stood at 1 nM in experiment [1] and 28 nM in experiment [3]. For the same molecule, the half-maximal effective concentration (EC50) in experiment [2] (NN-NHDF cells, MOI of 1, 72 hrs, read-out: CMV-Luc Cellular EC50) was 1900 nM.
For `Cn1nc(C(=O)NCc2ccc(C#N)cc2)c2c1C(=O)N(CC1(S(=O)(=O)C(C)(C)C(O)CO)CC1)CC2` (stereo not drawn) [Example 252, N-(4-cyanobenzyl)-6-((1-((3,4-dihydroxy-2-methylbutan-2-yl)sulfonyl)cyclopropyl)methyl)-1-methyl-7-oxo-4,5,6,7-tetrahydro-1H-pyrazolo[3,4-c]pyridine-3-carboxamide], the 50% effective concentration (EC50) in experiment [7] came to 21.9 nM.
